Data as given in patent publication US8815807B2, “Peptides and peptide compositions having osteoinductive activity” (President and Fellows of Harvard College, priority 2008, dated 2014).
Positions of bridges follow the written chain, without caps; N, C: chain ends. No end group written: not given here.

How the values were obtained:
Type in all cases: cell-based, human
[1] = tested on: hMSC cells; assay: Alkaline phosphatase (AP) in cells contacted with peptide-displaying clones (tertiary screen); conditions: for induction of osteoblastic marker enzyme alkaline phosphatase: additional screening of clones
Procedure: A tertiary screen of the identified peptides was performed. The effect of each peptide on target cells was determined by measuring amounts of osteoblastic marker alkaline phosphatase (AP). Clonally purified individual isolates, or sibling pools of multiple isolates, were tested using the secondary and tertiary screens.
Individual preparations of each bacterial peptide-bearing clone to be tested were induced to express peptides, and were heat-devitalized in boiled water, to kill the peptide-displaying bacteria. Fifty microliters of heat-devitalized bacterial suspension was poured into each well of a 96-well plate containing agar, and the plate was centrifuged at 2000 rpm to embed bacteria in the surface of the agar.
Clones were further tested to quantify amount of stimulation of alkaline phosphatase (AP) activity in contacted cells. […] DNA from this clone that stimulated AP expression was isolated and was sequenced, and the DNA sequence was used to obtain amino acid sequence VFLRGNNSGGRS (SEQ ID NO: 2). This amino acid sequence appears not to have been previously reported.
Osteoinductive peptides with activity that stimulated osteoblasts include: VFLRGNNSGGRS (SEQ ID NO:2), GKIHRHRGQAVE (SEQ ID NO: 3), HIRQMPVRAGLS (SEQ ID NO: 4), RQGVGSNGXIQK (SEQ ID NO: 5), ESHCLLGISCVL (SEQ ID NO: 6), QQLQQNVILET (SEQ ID NO: 7), RSKLVEFRTTG (SEQ ID NO: 8), RNWRMSRRGGM (SEQ ID NO: 9), CVRGRGRMAGSV (SEQ ID NO: 10), ITRGELATVRRS (SEQ ID NO: 11), LRLGVGMGRTC (SEQ ID NO: 12), ERFAGNRNQLQ (SEQ ID NO: 13), GGLGSVGWYWA (SEQ ID NO: 14), GCGKERGRRALK (SEQ ID NO: 15), GQERLWAFRWVP (SEQ ID NO: 16), RGVLRVGTGRSE (SEQ ID NO: 17), ITRGELATVRRS (SEQ ID NO: 18), RPALRLGLIGPS (SEQ ID NO: 19), TRTSVDAPIRX (SEQ ID NO: 20), SKALRGVGSVAS (SEQ ID NO: 21), and RRGQDRGHEPK (SEQ ID NO: 22).

[2] = tested on: MG63 cells; assay: Cellular ATP in MG63 cells on streptavidin-coated wells treated with biotinylated peptide; conditions: MG63 1,000 cells/well, 120 hours after seeding, 50-3200 pmole/well, FIG. 4, versus biotin only
Procedure: (§1) Cell growth and osteogenic inducing potential of each of the preparations of the biotinylated linear and the cyclic peptides was determined. The osteogenic potential of each peptide was analyzed by quantifying cellular ATP and alkaline phosphatase (AP) activity of osteoblast cells.
(§2) Peptides were added to the wells in titrated amounts (50 pmole/well, 100 pmole/well, 200 pmole/well, 400 pmole/well, 800 pmole/well, 1600 pmole/well, or 3200 pmole/well) and were immobilized on streptavidin-coated plastic well plates (384 wells per plate). The biotin-binding capacity of the plates was 50 pmole/well. Each well was washed to remove unbound biotinylated peptides. […] MG63 cells (1,000 cells/well) were inoculated into each well.
(§3) ATP (RFU/well) was measured at each of 24 hours and 120 hours after cells were seeded, and alkaline phosphatase (AP, RFU standardized by cell number) activity was measured 120 hours after cells were seeded.

[3] = tested on: MG63 cells; assay: Alkaline phosphatase activity of MG63 cells on streptavidin-coated wells treated with biotinylated peptide; conditions: MG63 1,000 cells/well, 120 hours after seeding, 50-3200 pmole/well, FIG. 5, versus biotin only
Procedure: as §1, §2, §3

CVRGRGRMAGSV (The protein was designed and synthesized) [SEQ ID NO: 10]
induction of osteoblastic marker enzyme alkaline phosphatase [1]: induced osteoblastic marker enzyme alkaline phosphatase

ERFAGNRNQLQ (The protein was designed and synthesized) [SEQ ID NO: 13]
induction of osteoblastic marker enzyme alkaline phosphatase [1]: induced osteoblastic marker enzyme alkaline phosphatase

ESHCLLGISCVL (The protein was designed and synthesized) [SEQ ID NO: 6, osteopontin-like peptide]
induction of osteoblastic marker enzyme alkaline phosphatase [1]: induced osteoblastic marker enzyme alkaline phosphatase
cellular ATP amounts / cell growth, 120 hours [2]: induced cell growth
alkaline phosphatase (AP) activity, 120 hours [3]: production of osteogenic marker AP

GCGKERGRRALK (The protein was designed and synthesized) [SEQ ID NO: 15]
induction of osteoblastic marker enzyme alkaline phosphatase [1]: induced osteoblastic marker enzyme alkaline phosphatase

GEN/cyclic: biotinylated cyclic ESHCLLGISCVL (SEQ ID NO: 6), three mini-PEG repeats, synthesized by GEN (disulfide 4-10 (inferred); also: biotin, three mini-PEG repeats, attachment end not given here)
cellular ATP amounts / cell growth, 120 hours [2]: stimulated ATP production and cellular growth
alkaline phosphatase (AP) activity, 120 hours [3]: induced greater alkaline phosphatase activity than the controls

GEN/linear: biotinylated linear ESHCLLGISCVL (SEQ ID NO: 6), three mini-PEG repeats, synthesized by GEN (cysteine pairing not given here; also: biotin, three mini-PEG repeats, attachment end not given here)
cellular ATP amounts / cell growth, 120 hours [2]: stimulated ATP production and cellular growth
cellular ATP amounts / cell growth, 120 hours ([2]; listed as linear peptides synthesized by GEN): greater ATP amounts than those in wells treated with any of the other peptides
alkaline phosphatase (AP) activity, 120 hours [3]: induced greater alkaline phosphatase activity than the controls

GGLGSVGWYWA (The protein was designed and synthesized) [SEQ ID NO: 14]
induction of osteoblastic marker enzyme alkaline phosphatase [1]: induced osteoblastic marker enzyme alkaline phosphatase

GKIHRHRGQAVE (The protein was designed and synthesized) [SEQ ID NO: 3]
induction of osteoblastic marker enzyme alkaline phosphatase [1]: induced osteoblastic marker enzyme alkaline phosphatase

GQERLWAFRWVP (The protein was designed and synthesized) [SEQ ID NO: 16]
induction of osteoblastic marker enzyme alkaline phosphatase [1]: induced osteoblastic marker enzyme alkaline phosphatase

HIRQMPVRAGLS (The protein was designed and synthesized) [SEQ ID NO: 4]
induction of osteoblastic marker enzyme alkaline phosphatase [1]: induced osteoblastic marker enzyme alkaline phosphatase

ITRGELATVRRS (The protein was designed and synthesized) [SEQ ID NO: 11]
induction of osteoblastic marker enzyme alkaline phosphatase [1]: induced osteoblastic marker enzyme alkaline phosphatase

LRLGVGMGRTC (The protein was designed and synthesized) [SEQ ID NO: 12]
induction of osteoblastic marker enzyme alkaline phosphatase [1]: induced osteoblastic marker enzyme alkaline phosphatase

NEP/cyclic: biotinylated cyclic ESHCLLGISCVL (SEQ ID NO: 6), 15 atom-PEG, synthesized by NEP (disulfide 4-10 (inferred); also: biotin, 15 atom-PEG, attachment end not given here)
cellular ATP amounts / cell growth, 120 hours [2]: stimulated ATP production and cellular growth
alkaline phosphatase (AP) activity, 120 hours [3]: induced greater alkaline phosphatase activity than the controls

NEP/linear: biotinylated linear ESHCLLGISCVL (SEQ ID NO: 6), 15 atom-PEG, synthesized by NEP (cysteine pairing not given here; also: biotin, 15 atom-PEG, attachment end not given here)
cellular ATP amounts / cell growth, 120 hours [2]: stimulated ATP production and cellular growth
alkaline phosphatase (AP) activity, 120 hours [3]: induced greater alkaline phosphatase activity than the controls

QQLQQNVILET (The protein was designed and synthesized) [SEQ ID NO: 7]
induction of osteoblastic marker enzyme alkaline phosphatase [1]: induced osteoblastic marker enzyme alkaline phosphatase

RGVLRVGTGRSE (The protein was designed and synthesized) [SEQ ID NO: 17]
induction of osteoblastic marker enzyme alkaline phosphatase [1]: induced osteoblastic marker enzyme alkaline phosphatase

RNWRMSRRGGM (The protein was designed and synthesized) [SEQ ID NO: 9]
induction of osteoblastic marker enzyme alkaline phosphatase [1]: induced osteoblastic marker enzyme alkaline phosphatase

RPALRLGLIGPS (The protein was designed and synthesized) [SEQ ID NO: 19]
induction of osteoblastic marker enzyme alkaline phosphatase [1]: induced osteoblastic marker enzyme alkaline phosphatase

RQGVGSNGXIQK [SEQ ID NO: 5]
induction of osteoblastic marker enzyme alkaline phosphatase [1]: induced osteoblastic marker enzyme alkaline phosphatase

RRGQDRGHEPK (The protein was designed and synthesized) [SEQ ID NO: 22]
induction of osteoblastic marker enzyme alkaline phosphatase [1]: induced osteoblastic marker enzyme alkaline phosphatase

RSKLVEFRTTG (The protein was designed and synthesized) [SEQ ID NO: 8]
induction of osteoblastic marker enzyme alkaline phosphatase [1]: induced osteoblastic marker enzyme alkaline phosphatase

SKALRGVGSVAS (The protein was designed and synthesized) [SEQ ID NO: 21]
induction of osteoblastic marker enzyme alkaline phosphatase [1]: induced osteoblastic marker enzyme alkaline phosphatase

TRTSVDAPIRX [SEQ ID NO: 20]
induction of osteoblastic marker enzyme alkaline phosphatase [1]: induced osteoblastic marker enzyme alkaline phosphatase

VFLRGNNSGGRS (The protein was designed and synthesized) [SEQ ID NO: 2]
induction of osteoblastic marker enzyme alkaline phosphatase [1]: induced osteoblastic marker enzyme alkaline phosphatase
AP expression compared with control cells contacted with empty vector ([1]; clone-contacted cells): an order of magnitude more AP expression
